According to ChEMBL document CHEMBL5038635, “Discovery of Salidroside-Derivated Glycoside Analogues as Novel Angiogenesis Agents to Treat Diabetic Hind Limb Ischemia” (J Med Chem, 2022):
Activity calls are given as the source filed them.

What was measured:
C2C12 [1] = experiment: Apoptotic rate in hyperglycemia-treated mouse C2C12 cells assessed as early apoptotic cells at 30 uM by AnnexinV-FITC/PI staining based flow cytometric analysis (reference value: 7.10 %); type: functional
C2C12 [2] = experiment: Angiogenic activity in mouse C2C12 cells assessed as accumulation HIF-1alpha protein expression at 300 uM by Western blot analysis; type: functional, cell-based
[3] = target: Hypoxia-inducible factor 1-alpha (Mus musculus) (UniProt Q61221); experiment: Inhibition of HIF-1alpha in mouse C2C12 cells transfected with PDGF-B driven firefly luciferase gene assessed as transcriptional activity pretreated with compound for 12 hr followed by hypoxic condition for 24 hrs by dual luciferase reporter gene assay; type: cell-based; conditions: time 36.0 hrs
HUVEC [4] = experiment: Angiogenic activity in human HUVEC cells assessed as suppression of F-actin polymerization at 30 uM using conditioned medium of mouse C2C12 cells treated at 30 uM under hyperglycemic condition for 12 hrs followed by hypoxia for 12 hrs by phalloidin staining based confocal microscopy; type: functional, cell-based; conditions: time 24.0 hrs
C2C12 [5] = experiment: Induction proliferation of mouse C2C12 cells with silenced HIF-1alpha at 30 uM pretreated with compound in hyperglycemia condition for 12 hr followed by hypoxia condition for 24 hrs by EdU-incorporation assay; type: functional, cell-based; conditions: time 36.0 hrs
C2C12 [6] = experiment: Apoptotic rate in mouse C2C12 cells with silenced HIF-1alpha assessed as late apoptotic cells at 30 uM by AnnexinV-FITC/PI staining based FACS analysis (reference value: 9.62 %); type: functional
Mus musculus [7] = experiment: Antidiabetic activity in diabetic HLI C57BL/6 mouse model assessed as increase in blood perfusion recovery at 30 mg/kg administered intramuscularly measured after 14 days; type: functional; conditions: time 14 day
[8] = Toxicity in diabetic HLI C57BL/6 mouse model assessed as spleen pathology at 30 mg/kg, IM administered by HE staining based assay; type: organism-based; conditions: in vivo
Mus musculus [9] = experiment: Antidiabetic activity in diabetic HLI C57BL/6 mouse model assessed as increase in blood perfusion recovery at 30 mg/kg administered intramuscularly; type: functional, organism-based
C2C12 [10] = experiment: Angiogenesis activity in mouse C2C12 cells assessed as decrease in apoptotic rate at 30 uM under hyperglycemia condition presence of MeOE2 inhibitor by Annexin V/PI staining based Flowcytometry method; type: functional, cell-based
C2C12 [11] = experiment: Apoptotic rate in mouse C2C12 cells with silenced HIF-1alpha assessed as viable cells at 30 uM by AnnexinV-FITC/PI staining based FACS analysis (reference value: 86.05 %); type: functional; conditions: read-out: Activity
C2C12 [12] = experiment: Upregulation of VEGF-A protein expression in mouse C2C12 cells at 30 uM by Western blot analysis; type: functional, cell-based
MOVAS-1 [13] = experiment: Angiogenic activity in mouse MOVAS-1 cells assessed as suppression of F-actin polymerization at 30 uM using conditioned medium of mouse C2C12 cells treated at 30 uM under hyperglycemic condition for 12 hrs followed by hypoxia for 12 hrs by phalloidin staining based confocal microscopy; type: functional, cell-based; conditions: time 24.0 hrs
HUVEC [14] = experiment: Induction proliferation of human HUVEC cells assessed as increase in number of EdU-positive cells using conditioned medium of mouse C2C12 cells treated at 30 uM under hyperglycemic condition for 12 hrs followed by hypoxia for 24 hrs by EdU-incorporation assay; type: functional; conditions: time 36 hrs
C2C12 [15] = experiment: Upregulation of […] protein expression in mouse C2C12 cells at 30 uM by Western blot analysis; type: functional, cell-based
C2C12 [16] = experiment: Upregulation of PIK3CG protein expression in mouse C2C12 cells at 30 uM by Western blot analysis; type: functional, cell-based
C2C12 [17] = experiment: Upregulation of FGF2 protein expression in mouse C2C12 cells at 30 uM by Western blot analysis; type: functional, cell-based
HUVEC [18] = experiment: Induction proliferation of human HUVEC cells assessed as increase in number of EdU-positive cells using conditioned medium of mouse C2C12 cells with silenced HIF-1alpha treated at 30 uM under hyperglycemic condition for 12 hrs followed by hypoxia for 24 hrs in presence of VEGFR inhibitor Ki8751 by EdU-incorporation assay; type: functional, cell-based; conditions: time 36.0 hrs
C2C12 [19] = experiment: Induction of proliferation of hyperglycemia-induced mouse C2C12 cell apoptosis assessed as decrease in Annexin V/PI-positive cells at 30 uM pretreated with compound under hyperglycemia condition for 12 hr followed by hypoxia for 24 hrs; type: functional, cell-based; conditions: time 36.0 hrs
C2C12 [20] = experiment: Effect on PHD2 mRNA expression in mouse C2C12 cells at 30 uM by qRT-PCR analysis; type: functional, cell-based
C2C12 [21] = experiment: Increase in VEGF-A protein expression level in […] mouse C2C12 cells at 30 uM by Western blot analysis; type: functional, cell-based
C2C12 [22] = experiment: Reversal of hyperglycemia-induced VEGF-A protein level reduction in mouse C2C12 cells measured at 30 uM by ELISA; type: functional, cell-based
C2C12 [23] = experiment: Upregulation of FGF18 protein expression in mouse C2C12 cells at 30 uM by Western blot analysis; type: functional, cell-based
C2C12 [24] = experiment: Apoptotic rate in hyperglycemia-treated mouse C2C12 cells assessed as viable cells at 15 uM by AnnexinV-FITC/PI staining based flow cytometric analysis (reference value: 81.90 %); type: functional; conditions: read-out: Activity
MOVAS-1 [25] = experiment: Angiogenesis activity in mouse MOVAS-1 cells assessed as suppression of cell migration using conditioned medium of mouse C2C12 cells with silenced HIF-1alpha treated at 30 uM under hyperglycemic condition for 12 hrs followed by hypoxia for 24 hrs in presence of PDGF-BB inhibitor CP868596 by crystal violet dye based transwell assay; type: functional; conditions: time 36.0 hrs
MOVAS-1 [26] = experiment: Angiogenesis activity in mouse MOVAS-1 assessed as increase of cell migration using conditioned medium of mouse C2C12 cells with silenced HIF-1alpha treated at 30 uM under hyperglycemic condition for 12 hrs followed by hypoxia for 24 hrs by crystal violet dye based transwell assay; type: functional; conditions: time 36.0 hrs
C2C12 [27] = experiment: Increase in PDGF-BB protein expression level in HIF-1 alpha silenced mouse C2C12 cells at 30 uM by Western blot analysis; type: functional, cell-based
[28] = Permeability coefficient across basolateral to apical side in human Caco-2 cells by HPLC-UV analysis
Mus musculus [29] = experiment: Antidiabetic activity in diabetic HLI C57BL/6 mouse model assessed as effect on blood glucose level at 15 mg/kg administered intramuscular; type: functional, organism-based
MOVAS-1 [30] = experiment: Induction proliferation of mouse MOVAS-1 cells assessed as increase in number of EdU-positive cells using conditioned medium of mouse C2C12 cells treated at 30 uM under hyperglycemic condition for 12 hrs followed by hypoxia for 24 hrs by EdU-incorporation assay; type: functional; conditions: time 36 hrs

Hypoxia-inducible factor 1-alpha (Mus musculus), sequence (Q61221 whole entry): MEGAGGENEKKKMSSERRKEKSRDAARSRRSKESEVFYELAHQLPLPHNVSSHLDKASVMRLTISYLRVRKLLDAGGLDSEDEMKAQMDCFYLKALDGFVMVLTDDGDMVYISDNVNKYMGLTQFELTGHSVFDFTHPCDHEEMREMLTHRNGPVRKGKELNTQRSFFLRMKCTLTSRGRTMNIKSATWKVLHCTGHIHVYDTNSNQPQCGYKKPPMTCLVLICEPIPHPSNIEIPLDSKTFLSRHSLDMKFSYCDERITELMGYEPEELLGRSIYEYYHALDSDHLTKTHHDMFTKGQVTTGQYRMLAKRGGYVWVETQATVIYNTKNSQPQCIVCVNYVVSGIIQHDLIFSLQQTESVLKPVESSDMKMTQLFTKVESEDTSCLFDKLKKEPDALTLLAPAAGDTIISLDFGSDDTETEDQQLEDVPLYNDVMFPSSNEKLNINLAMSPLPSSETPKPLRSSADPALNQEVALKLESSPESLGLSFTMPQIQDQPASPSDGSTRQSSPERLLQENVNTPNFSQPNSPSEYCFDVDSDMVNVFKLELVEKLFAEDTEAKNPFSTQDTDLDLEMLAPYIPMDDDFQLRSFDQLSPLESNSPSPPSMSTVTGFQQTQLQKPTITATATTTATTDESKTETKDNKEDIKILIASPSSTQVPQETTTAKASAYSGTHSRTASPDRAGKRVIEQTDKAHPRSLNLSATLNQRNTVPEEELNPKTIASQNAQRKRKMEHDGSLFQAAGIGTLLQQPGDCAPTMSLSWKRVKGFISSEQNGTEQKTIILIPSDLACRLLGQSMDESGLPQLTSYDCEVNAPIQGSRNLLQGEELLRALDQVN

COc1ccc(Cc2cccc(O[C@@H]3O[C@H](CO)[C@@H](O)[C@H](O)[C@H]3O)c2)cc1
2.13%: Activity (C2C12 [1])
70%: Activity (Mus musculus [7])
14.63%: Activity (C2C12 [6])
active: inhibition (C2C12 [2]) | inhibition [3] | Activity (HUVEC [4]) | Activity (Mus musculus [9]) | Activity (C2C12 [12]) | Activity (MOVAS-1 [13]) | Activity (C2C12 [15]) | Activity (C2C12 [16]) | Activity (C2C12 [17]) | Activity (C2C12 [19]) | Activity (C2C12 [22]) | Activity (C2C12 [23]) | Activity (MOVAS-1 [26]) | Activity (Mus musculus [29])
Non-Toxic: Activity [8]
1.11 ×10⁻⁶ cm/s: Papp B→A [28]
82%: viability at 30 µM (C2C12 [11])
2: fold change (FC) (HUVEC [14]) | fold change (FC) (MOVAS-1 [30])
inactive: Activity (C2C12 [5]) | Activity (C2C12 [10]) | Activity (HUVEC [18]) | Activity (C2C12 [20]) | Activity (C2C12 [21]) | Activity (MOVAS-1 [25]) | Activity (C2C12 [27])
88.9%: viability at 15 µM (C2C12 [24])
